This note sets out measurements from US20220411480A1, “ANTITUMOR PEPTIDE AND USE THEREOF” (TOAGOSEI CO., LTD, priority 2018, published 2022).

Residues, ends and D or L forms follow the SMILES beside them.

The nature of data set [1]: Antitumor activity evaluation test (1), cell viability by Cell Counting Kit-8 (WST-8). The format is cell-based, human. As to conditions: peptide 25 μM, 48 hours, relative to culture medium containing no peptide = 100%; read-out: A2058 cell viability (survival rate). The procedure: (§1) The antitumor activity of the sample peptides synthesized in Test Example 1 was evaluated using human-derived cultured tumor cells as targets.
(§2) Specifically, currently commercially available human melanoma (A2058) cell lines were used as test tumor cells. In addition, a normal human mammary epithelial cell culture line (MCF-12F) was used for comparison. Here, culture solutions of respective cells are as follows. • (1) A2058 cells:
(§3) DMEM culture medium including 2 mM L-glutamine, 0.1 mM of non-essential amino acids, 50 units/mL of penicillin, 50 μg/mL of streptomycin, and 10% fetal bovine serum (FBS) (product, commercially available from Wako Pure Chemical Industries, Ltd.). • (2) MCF-12F cells:
(§4) DMEM/F12 culture medium including 20 ng/mL of recombinant EGF, 10 μg/mL of insulin, 0.5 μg/mL of hydrocortisone, and 10% FBS (product, commercially available from Wako Pure Chemical Industries, Ltd.).
(§5) A2058 cells and MCF-12F cells were cultured and prepared so that the number of cells per well in a 96-well plate was about 5×10^3. An amount of the culture medium in this case was 100 μL per well.
(§6) Next, the 96-well plate was placed in a CO2 incubator and pre-incubated under conditions of 37° C. and 5% CO2 for about 1 day (21 hours to 24 hours).
(§7) Then, peptide-containing test culture mediums for each concentration were prepared so that the concentrations of the sample peptides to be evaluated were 12.5 μM and 25 μM, and supplied to wells (that is, wells after the pre-incubation) in which 90μL of cells to be evaluated were cultured in each well. Then, the 96-well plate was returned to the CO2 incubator and incubated under conditions of 37° C. and 5% CO2 for 48 hours.
(§8) Here, the number of test wells (n) at peptide concentrations in peptide addition test groups was set to 3. Therefore, the value of the result shown in the following table is an average value of the results obtained in three test wells. First, the cell viability (%) was determined as follows.
(§9) After the incubation for 48 hours was completed, the culture medium in each well was replaced with 100 μL of a fresh culture medium containing no peptide, and additionally, 10μL of a cell proliferation measurement reagent “Cell Counting Kit-8” (product, commercially available from Dojindo Molecular Technologies, Inc.) containing a “water-soluble tetrazolium salt (WST-8)” as a coloring reagent was added to each well. Then, the 96-well plate was returned to the CO2 incubator and incubated under conditions of 37° C., and 5% CO2 for 1.5 hours to 2 hours.
(§10) After the incubation was completed, the cell culture solution to which the reagent was added was collected and the cell viability (%) was evaluated according to a colorimetric method in which an absorbance at a wavelength of 450 nm (value corrected by the absorbance at a wavelength of 650 nm: A450-A650) was measured based on the reduction of the tetrazolium salt. Specifically, a measured value (measured absorbance) of a comparative test group in which the above incubation was performed for 48 hours simply in a culture medium containing no peptide was set as a cell viability of 100%, and the cell viability (%) was calculated from the measured absorbance of each test cell line as a relative value.
(§11) Specifically, a value (value multiplied by 100 for convenience) obtained by dividing the cell viability of target tumor cells (here, A2058 cells) when the sample peptides were added at a concentration of 12.5 μM or 25 μM measured as described above by the cell viability of comparative normal cells (here, MCF-12F cells) measured under the same conditions, that is,
(§12) {(A2058 cell viability)/(MCF-12F cell viability)}×100 was calculated as a specific cell viability of the tumor cells, and the test tumor cells selective antitumor activity with respect to normal cells was evaluated using such a specific cell viability as an index.
In general terms: Formazan colour is commonly taken as a measure of viable cells.

Data set [2] relates to human melanoma (A2058) cell lines. Described as above. Type of data set: cell-based. Conditions: 48 hours, A2058 versus normal MCF-12F cells. The procedure:
as §1, §2, §3, §4, §5, §6, §7, §8, §9, §10, §11, §12

Usually viability stands for a per cent measure of how many cells are alive, often set against a control. Take `CC[C@H](C)[C@H](NC(=O)[C@H](Cc1ccccc1)NC(=O)CNC(=O)[C@H](Cc1ccc(O)cc1)NC(=O)[C@@H](N)C(C)C)C(=O)NCC(=O)N[C@@H](CC(C)C)C(=O)N[C@@H](CS)C(=O)N[C@@H](Cc1c[nH]c2ccccc12)C(=O)N[C@@H](CC(C)C)C(=O)N[C@@H](CC(C)C)C(=O)N[C@@H](C)C(=O)N[C@@H](C)C(=O)N[C@@H](CC(C)C)C(=O)N[C@@H](CC(C)C)C(=O)NCC(=O)N[C@@H](CCSC)C(=O)N[C@@H](CC(C)C)C(=O)N1CCC[C@H]1C(=O)N[C@@H](CC(C)C)C(=O)N[C@@H](CC(C)C)C(=O)N[C@@H](CCCNC(=N)N)C(=O)N[C@@H](CCCCN)C(=O)N[C@@H](CCCCN)C(=O)N[C@@H](CCCNC(=N)N)C(=O)N[C@@H](CCCNC(=N)N)C(=O)N[C@@H](CCC(N)=O)C(=O)N[C@@H](CCCNC(=N)N)C(=O)N[C@@H](CCCNC(=N)N)C(=O)N[C@@H](CCCNC(=N)N)C(N)=O` [Sample 4] (H-VYGFIGLCWLLAALLGMLPLLRKKRRQRRR-NH2; N-terminus assumed): the viability in data set [1] stood at 5.3%. The figures for the “Specific cell viability {(A2058 cell viability)/(MCF-12F cell viability)}×100” value in data set [2] (peptide 12.5 μM) and in data set [2] (peptide 25 μM) were 46.80 and 35.10, respectively.
For `CSCC[C@H](NC(=O)[C@H](C)N)C(=O)N[C@@H](Cc1ccc(O)cc1)C(=O)N[C@@H](CC(C)C)C(=O)N[C@@H](Cc1ccccc1)C(=O)N[C@@H](CC(C)C)C(=O)NCC(=O)N[C@@H](CC(N)=O)C(=O)N[C@@H](CC(C)C)C(=O)N[C@@H](C)C(=O)N[C@@H](C)C(=O)N[C@@H](CO)C(=O)N[C@@H](CC(=O)O)C(=O)N[C@@H](CC(C)C)C(=O)N[C@@H](CC(C)C)C(=O)N[C@@H](C)C(=O)NCC(=O)N[C@H](C(=O)N[C@@H](C)C(=O)N[C@@H](Cc1ccccc1)C(=O)N[C@H](C(=O)N[C@@H](C)C(=O)N[C@@H](CC(N)=O)C(=O)N[C@H](C(=O)N[C@@H](CC(C)C)C(=O)N[C@@H](CC(C)C)C(=O)N[C@@H](CO)C(=O)NCC(=O)N[C@@H](CO)C(=O)N[C@@H](CCCNC(=N)N)C(=O)N[C@@H](CCCCN)C(=O)N[C@@H](CCCCN)C(=O)N[C@@H](CCCNC(=N)N)C(=O)N[C@@H](CCCNC(=N)N)C(=O)N[C@@H](CCC(N)=O)C(=O)N[C@@H](CCCNC(=N)N)C(=O)N[C@@H](CCCNC(=N)N)C(=O)N[C@@H](CCCNC(=N)N)C(N)=O)[C@@H](C)O)C(C)C)C(C)C` [Sample 1] (H-AMYLFLGNLAASDLLAGVAFVANTLLSGSRKKRRQRRR-NH2; N-terminus assumed), in data set [1], the viability was found to be 0.7%. In addition, the “Specific cell viability {(A2058 cell viability)/(MCF-12F cell viability)}×100” value in data set [2] (peptide 12.5 μM) is given as 114.85; in data set [2] (peptide 25 μM), 16.67.
Consider `CC(C)C[C@H](NC(=O)CNC(=O)[C@H](CCC(=O)O)NC(=O)[C@H](CCCNC(=N)N)NC(=O)[C@H](CC(C)C)NC(=O)[C@H](Cc1ccccc1)NC(=O)[C@@H](N)Cc1c[nH]c2ccccc12)C(=O)N[C@@H](CC(C)C)C(=O)N[C@@H](Cc1ccccc1)C(=O)N[C@H](C(=O)N[C@@H](C)C(=O)N[C@@H](CC(C)C)C(=O)N[C@@H](C)C(=O)N[C@@H](C)C(=O)N[C@@H](CO)C(=O)N[C@H](C(=O)N[C@@H](Cc1ccccc1)C(=O)N[C@@H](CO)C(=O)N[C@@H](CC(C)C)C(=O)N[C@@H](CC(C)C)C(=O)N[C@@H](Cc1ccccc1)C(=O)N[C@@H](CCCNC(=N)N)C(=O)N[C@@H](CCCCN)C(=O)N[C@@H](CCCCN)C(=O)N[C@@H](CCCNC(=N)N)C(=O)N[C@@H](CCCNC(=N)N)C(=O)N[C@@H](CCC(N)=O)C(=O)N[C@@H](CCCNC(=N)N)C(=O)N[C@@H](CCCNC(=N)N)C(=O)N[C@@H](CCCNC(=N)N)C(N)=O)[C@@H](C)O)[C@@H](C)O` [Sample 3] (H-WFLREGLLFTALAASTFSLLFRKKRRQRRR-NH2; N-terminus assumed), for which the viability in data set [1] worked out at 4.6%. Besides, the “Specific cell viability {(A2058 cell viability)/(MCF-12F cell viability)}×100” value in data set [2] (peptide 12.5 μM) is 68.20; in data set [2] (peptide 25 μM), 25.41.
With `CC[C@H](C)[C@H](NC(=O)[C@H](C)NC(=O)[C@H](CC(C)C)NC(=O)[C@H](CC(C)C)NC(=O)[C@H](CO)NC(=O)[C@H](CC(C)C)NC(=O)[C@@H](NC(=O)[C@H](CO)NC(=O)[C@H](C)NC(=O)[C@@H](NC(=O)[C@H](CC(C)C)NC(=O)[C@H](C)NC(=O)[C@@H](NC(=O)[C@H](Cc1ccccc1)NC(=O)[C@@H](NC(=O)CNC(=O)CNC(=O)[C@@H](N)CCC(=O)O)C(C)C)C(C)C)[C@@H](C)O)C(C)C)C(=O)N[C@@H](C)C(=O)N[C@@H](CC(C)C)C(=O)N[C@@H](CCC(=O)O)C(=O)N[C@@H](CCCNC(=N)N)C(=O)N[C@@H](CCCCN)C(=O)N[C@@H](CCCCN)C(=O)N[C@@H](CCCNC(=N)N)C(=O)N[C@@H](CCCNC(=N)N)C(=O)N[C@@H](CCC(N)=O)C(=O)N[C@@H](CCCNC(=N)N)C(=O)N[C@@H](CCCNC(=N)N)C(=O)N[C@@H](CCCNC(=N)N)C(N)=O` [Sample 5] (H-EGGVFVALTASVLSLLAIALERKKRRQRRR-NH2; N-terminus assumed), the viability in data set [1] was 5.5%. Further, the “Specific cell viability {(A2058 cell viability)/(MCF-12F cell viability)}×100” value in data set [2] (peptide 12.5 μM) was found to be 88.08; in data set [2] (peptide 25 μM), 10.09.
